Results published in patent US20150174209A1, “INSULIN-PRAMLINTIDE COMPOSITIONS AND METHODS FOR MAKING AND USING THEM” (AMYLIN PHARMACEUTICALS. LLC, priority 2012, published 2015).

Legend:
[1] = test system: type 1 diabetic subjects; assay: Identification of the gastro-intestinal tract (oral glucose absorption) model on Ra meal data of the Woerle T1D database; parameters: species or system human; settings: 30 μg pramlintide s.c. with meal containing 50 g glucose, 15 type 1 diabetic subjects
Description: The database was made up of 15 type 1 diabetic subjects (8 men and 7 women, 37±2 years of age, body weight 76±3 kg) (this is a database for each individual patient participating in the study published in Woerle et al. (December, 2008) Diabetes Care 31(12): 2325-2331, in which pramlintide was given to TI patients and labeled glucose appearance from meal to blood was measured; Woerle reported the effect of pramlintide on gastric emptying and thus glucose appearance in the blood after a meal in patients with type 1 diabetes). “Ra meal data” means the “glucose rate of appearance (Ra) of ingested glucose”; “Ra meal” refers to measurement in response to a meal (ingested), versus after say an intraduodenal injection of glucose.
Subjects were studied on 2 occasions: hyperglycemia with (PRAM) and without (PBO) 30 μg of pramlintide (Amylin Pharmaceuticals, San Diego, Calif.), injected subcutaneously in the lower abdominal wall with the standardized meal containing 50 g of glucose. Over the initial 90 min of the postprandial period, blood samples were taken at 15 min intervals and thereafter at 30-min intervals until completion of the experiment at 330 min.
The model has been numerically identified on placebo Ra meal data using nonlinear weighted least-squares estimator. Identification on pramlintide Ra meal data have required the use of Bayesian estimator in order to achieve a precise estimates of model parameters.
Identification of the gastro-intestinal tract model on Woerle Ra meal data has provided individual parameters estimates for the 15 T1D subjects in presence or absence of pramlintide. Then individual variation for each parameter has been calculated as: […]
We reduced the standard deviations of the variation of the parameters to the 30% of their values due to the small number of subjects available:
Then 100 virtual parameters variations were generated from the distribution: […]

[2] = test system: patients with type 1 diabetes mellitus; settings: in vivo, sc; cited from earlier work
[3] = test system: healthy subjects; assay: Glucose and C-peptide minimal models and minimal model of gastrointestinal absorption on aggregated Woerle data; parameters: species or system human
Description: The data published in Woerle et al. (December, 2008) Diabetes Care 31(12): 2325-2331, where a dual tracer approach was used in healthy subjects to estimate the rate of appearance of glucose during the meal and hepatic glucose production during placebo/pramlintide were used in an aggregated fashion (individual data not available, FIG. 13A). […] Subsequently, the minimal model of gastrointestinal absorption (FIG. 37) was used to quantify the changes of the rate of appearance of ingested glucose due to pramlintide. […] This finding was incorporated into the Healthy State Simulator and predictions were successfully tested against Woerle et al data FIG. 38. We also successfully tested the prediction of 2 h postprandial glucose of the Type 1 Diabetes Simulator (illustrated in FIG. 18) (incorporating the new kmax) against the data by Kovatchev B P, et al., Pramlintide reduces the risks associated with glucose variability in type 1 diabetes. Diabetes Technol Ther. 2008 October; 10(5):391-6. The new model was finally incorporated into our model predictive control algorithm and in silico experiment on the Type 1 diabetes.

[4] = pH 2-3; 4C; cited from earlier work
[5] = Chemical stability of pramlintide and human insulin co-formulated in SYMLIN placebo buffer pH 4.0 (RP-HPLC purity; FIGS. 35, 36); settings: for stability in co-formulation: 25 degrees Centigrade, SYMLIN placebo buffer pH 4.0, 13 week study
Description: Purity was determined via RP-HPLC and is normalized to time=0 purity.

[6] = cited from earlier work

Compound	b (model parameter estimate, mean) [1]	c (model parameter estimate, mean) [1]	kabs (model parameter estimate, mean) [1]	kmin (model parameter estimate, mean) [1]	kmax (model parameter estimate, mean) ([1]; Bayesian estimator)	effect of mixing with short- or long-acting insulin in the same syringe on pharmacodynamics of glucose and pharmacokinetics of insulin or pramlintide [2]	effect on insulin sensitivity and beta-cell function ([3]; glucose and C-peptide minimal models)	decrease of parameter kmax (maximum gastric emptying) ([3]; minimal model of gastrointestinal absorption)	formation of monodesamido-(A21)-insulin [4]	purity loss during storage ([5]; 25 degrees C, insulin in co-formulations)	stability in co-formulation [5]	stability in co-formulation ([5]; listed as insulin)	absorption after subcutaneous injection [6]	duration of action ([6]; subcutaneous injection)
CC[C@H](C)[C@H](NC(=O)[C@@H]1CCCN1C(=O)CNC(=O)[C@H](Cc1ccccc1)NC(=O)[C@H](CC(N)=O)NC(=O)[C@H](CC(N)=O)NC(=O)[C@H](CO)NC(=O)[C@H](CO)NC(=O)[C@H](Cc1c[nH]cn1)NC(=O)[C@@H](NC(=O)[C@H](CC(C)C)NC(=O)[C@H](Cc1ccccc1)NC(=O)[C@H](CC(N)=O)NC(=O)[C@H](C)NC(=O)[C@H](CC(C)C)NC(=O)[C@H](CCCNC(=N)N)NC(=O)[C@H](CCC(N)=O)NC(=O)[C@@H](NC(=O)[C@H](C)NC(=O)[C@@H]1CSSC[C@H](NC(=O)[C@@H](N)CCCCN)C(=O)N[C@@H](CC(N)=O)C(=O)N[C@@H]([C@@H](C)O)C(=O)N[C@@H](C)C(=O)N[C@@H]([C@@H](C)O)C(=O)N1)[C@@H](C)O)C(C)C)C(=O)N[C@@H](CC(C)C)C(=O)N1CCC[C@H]1C(=O)N1CCC[C@H]1C(=O)N[C@H](C(=O)N[C@@H](CC(N)=O)C(=O)N[C@H](C(=O)NCC(=O)N[C@@H](CO)C(=O)N[C@@H](CC(N)=O)C(=O)N[C@H](C(=O)N[C@@H](Cc1ccc(O)cc1)C(N)=O)[C@@H](C)O)C(C)C)[C@@H](C)O [pramlintide]	0.985	0.537	0.020	0.005	0.041	did not affect	no effect	⅔	–	–	–	–	–	–
human insulin: regular human hormone with 21 amino acid A chain (SEQ ID NO:2) and 30 amino acid B chain (SEQ ID NO:3)	–	–	–	–	–	–	–	–	1-2 % per month	40%	rapidly degrades	unacceptable degradation	15 to 60 min	5 to 9 h
